Data from the supplement of paper PMC13207355.

Assays:
Conditions in all cases: exposure time: 72 h
[1] = test system: FT3469 (normal neural stem cell line); assay: phenotypic distance (Euclidean, principal components) from DMSO controls (arbitrary units); higher = stronger morphological change
[2] = test system: E28 (patient-derived glioblastoma stem cells of classical subtype); assay: as above
[3] = test system: E57 (patient-derived glioblastoma stem cells of mesenchymal subtype); assay: as above
[4] = test system: E31 (patient-derived glioblastoma stem cells of proneural subtype); assay: as above
[5] = test system: E34 (patient-derived glioblastoma stem cells of proneural subtype); assay: as above
[6] = test system: E21 (patient-derived glioblastoma stem cells of mesenchymal subtype); assay: as above
[7] = test system: E13 (patient-derived glioblastoma stem cells of classical subtype); assay: as above
[8] = test system: FT3469; assay: surviving fraction (nuclei count normalised to DMSO); higher = more cells surviving (less toxic)
[9] = test system: E28; assay: as above
[10] = test system: E57; assay: as above
[11] = test system: E31; assay: as above
[12] = test system: E34; assay: as above
[13] = test system: E21; assay: as above
[14] = test system: E13; assay: as above
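Throughout, for phenotypic distance (Euclidean, principal components) from DMSO controls: cell Painting imaging in 384-well plates, CellProfiler features reduced to at least 20 principal components, Euclidean distance versus same-plate DMSO vehicle wells (0.1% v/v), median over six images per well.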
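Throughout, for surviving fraction (nuclei count normalised to DMSO): nuclei counted by high-content imaging of Hoechst-stained cells in laminin-coated 384-well plates, relative to 0.1% DMSO vehicle wells, with staurosporine as cell-death control.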

O=C(Oc1cccc2cccnc12)c1ccccc1 [Benzoxiquine]
Conditions | phenotypic distance | surviving fraction
[1], 4.1 nM | 0.579 | –
[1], 12.3 nM | 0.893 | –
[1], 37 nM | 0.62 | –
[1], 111.1 nM | 0.641 | –
[1], 333.3 nM | 1.07 | –
[1], 1000 nM | 0.688 | –
[1], 3000 nM | 14.3 | –
[2], 4.1 nM | 1.39 | –
[2], 12.3 nM | 0.791 | –
[2], 37 nM | 1.24 | –
[2], 111.1 nM | 0.938 | –
[2], 333.3 nM | 0.845 | –
[2], 1000 nM | 1.59 | –
[2], 3000 nM | 17.6 | –
[3], 4.1 nM | 0.568 | –
[3], 12.3 nM | 0.458 | –
[3], 37 nM | 0.358 | –
[3], 111.1 nM | 0.673 | –
[3], 333.3 nM | 0.716 | –
[3], 1000 nM | 0.72 | –
[3], 3000 nM | 13.7 | –
[4], 4.1 nM | 1.12 | –
[4], 12.3 nM | 1.22 | –
[4], 37 nM | 0.854 | –
[4], 111.1 nM | 1.7 | –
[4], 333.3 nM | 1.32 | –
[4], 1000 nM | 1.22 | –
[4], 3000 nM | 15.5 | –
[5], 4.1 nM | 0.673 | –
[5], 12.3 nM | 0.614 | –
[5], 37 nM | 0.56 | –
[5], 111.1 nM | 0.455 | –
[5], 333.3 nM | 0.815 | –
[5], 1000 nM | 1.42 | –
[5], 3000 nM | 19.8 | –
[6], 4.1 nM | 1.17 | –
[6], 12.3 nM | 0.851 | –
[6], 37 nM | 1.34 | –
[6], 111.1 nM | 0.833 | –
[6], 333.3 nM | 1.24 | –
[6], 1000 nM | 0.732 | –
[6], 3000 nM | 23.9 | –
[7], 4.1 nM | 1.08 | –
[7], 12.3 nM | 1.14 | –
[7], 37 nM | 0.78 | –
[7], 111.1 nM | 0.506 | –
[7], 333.3 nM | 0.775 | –
[7], 1000 nM | 0.864 | –
[7], 3000 nM | 19.1 | –
[8], 4.1 nM | – | 1.05
[8], 12.3 nM | – | 0.924
[8], 37 nM | – | 1.06
[8], 111.1 nM | – | 1.03
[8], 333.3 nM | – | 1.21
[8], 1000 nM | – | 1
[8], 3000 nM | – | 0.00288
[9], 4.1 nM | – | 0.997
[9], 12.3 nM | – | 1.14
[9], 37 nM | – | 1.07
[9], 111.1 nM | – | 1.1
[9], 333.3 nM | – | 1.07
[9], 1000 nM | – | 1.27
[9], 3000 nM | – | 0.00427
[10], 4.1 nM | – | 0.965
[10], 12.3 nM | – | 0.992
[10], 37 nM | – | 0.997
[10], 111.1 nM | – | 1.01
[10], 333.3 nM | – | 0.999
[10], 1000 nM | – | 1.02
[10], 3000 nM | – | 0.00305
[11], 4.1 nM | – | 0.993
[11], 12.3 nM | – | 0.838
[11], 37 nM | – | 0.975
[11], 111.1 nM | – | 1.19
[11], 333.3 nM | – | 1.04
[11], 1000 nM | – | 1.04
[11], 3000 nM | – | 0
[12], 4.1 nM | – | 0.906
[12], 12.3 nM | – | 0.899
[12], 37 nM | – | 0.981
[12], 111.1 nM | – | 1.1
[12], 333.3 nM | – | 1.07
[12], 1000 nM | – | 0.844
[12], 3000 nM | – | 0.00175
[13], 4.1 nM | – | 0.962
[13], 12.3 nM | – | 1.11
[13], 37 nM | – | 1.13
[13], 111.1 nM | – | 1.1
[13], 333.3 nM | – | 0.981
[13], 1000 nM | – | 1.04
[13], 3000 nM | – | 0
[14], 4.1 nM | – | 0.876
[14], 12.3 nM | – | 0.962
[14], 37 nM | – | 1.05
[14], 111.1 nM | – | 0.997
[14], 333.3 nM | – | 1.09
[14], 1000 nM | – | 0.85
[14], 3000 nM | – | 0.000925
